According to patent US20220331414A1, “LIPID COMPOUNDS AND LIPID NANOPARTICLE COMPOSITIONS” (Suzhou Abogen Biosciences Co., Ltd., priority 2020, published 2022):

Columns and labels:
[1] = Apparent pKa of LNP formulations by TNS fluorescence assay; conditions: LNP cationic lipid/DSPC/cholesterol/DMG-PEG 50/10/38.5/1.5 mol %, pH 3 to 9
Description: TNS was prepared as a 300 uM stock solution in distilled water. LNP formulations were diluted to 0.1 mg/ml total lipid in 3 mL of buffered solutions containing 50 mM sodium citrate, 50 mM sodium phosphate, 50 mM sodium borate, and 30 mM sodium chloride where the pH ranged from 3 to 9. An aliquot of the TNS solution was added to give a final concentration of 0.1 mg/ml and following vortex mixing fluorescence intensity was measured at room temperature in a Molecular Devices Spectramax iD3 spectrometer using excitation and mission wavelengths of 325 nm and 435 nm. A sigmoidal best fit analysis was applied to the fluorescence data and the pKa value was measured as the pH giving rise to half—maximal fluorescent intensity.

[2] = Encapsulation efficiency of lipid nanoparticles (Quant-it Ribogreen RNA assay); assay type: physicochemical; conditions: LNP of cationic lipid/DSPC/cholesterol/PEG-lipid 50:10:38.5:1.5 with mRNA
Description: (§1) Briefly, a cationic lipid provided herein, DSPC, cholesterol, and PEG-lipid were solubilized in ethanol at a molar ratio of 50:10:38.5:1.5, and mRNA were diluted in 10 to 50 mM citrate buffer, pH=4. The LNPs were prepared at a total lipid to mRNA weight ratio of approximately 10:1 to 30:1 by mixing the ethanolic lipid solution with the aqueous mRNA solution at a volume ratio of 1:3 using a microfluidic apparatus, total flow rate ranging from 9-30 mL/min. Ethanol were thereby removed and replaced by DPBS using dialysis. Finally, the lipid nanoparticles were filtered through a 0.2 μm sterile filter.
(§2) Lipid nanoparticle size were determined by dynamic light scattering using a Malvern Zetasizer Nano ZS (Malvern UK) using a 173° backscatter detection mode. The encapsulation efficiency of lipid nanoparticles were determined using a Quant-it Ribogreen RNA quantification assay kit (Thermo Fisher Scientific, UK) according to the manufacturer's instructions.

[3] = Lipid nanoparticle size and polydispersity by dynamic light scattering; assay type: physicochemical; conditions: LNP of cationic lipid/DSPC/cholesterol/PEG-lipid 50:10:38.5:1.5 with mRNA
Description: as §1, §2

Apparant Pka [1] | Encapsulation Efficiency [2] | polydispersity [3] | size (nm) [3] | Compound
4.924 | 81.0% |  |  | CCCCCCCCCCC(CCCCCCCCCC)COP(=O)(NCCN(CC)CC)OCC(CCCCCCCCCC)CCCCCCCCCC [Compound 86]
7.45 | 98.4% | 0.258 | 58.48 nm | CCCCCCCCCCCCCOP(=O)(NCCN1CCCCC1)OCCCCCCCC(=O)OC(CCCCCCCC)CCCCCCCC (centres unmarked) [Compound 34]
7.70 | 101.1% | 0.306 | 50.64 nm | CCCCCCCCCCCCCOP(=O)(NCCN1CCC1)OCCCCCCCC(=O)OC(CCCCCCCC)CCCCCCCC (centres unmarked) [Compound 41]
6.319 | 87.8% | 0.056 | 82.63 nm | CCCCCCC(CCCCCC)COP(=O)(NCCN1CCCC1)OCC(CCCCCC)CCCCCC [Compound 83]
6.149 | 94.4% | 0.141 | 54.17 nm | CCCCCCCCCCC(CCCCCC)COP(=O)(NCCN(CC)CC)OCC(CCCCCC)CCCCCCCCCC (centres unmarked) [Compound 66]
6.571 | 49.0% | 0.205 | 179.7 nm | CC/C=C\CCC(CC/C=C\CC)COP(=O)(NCCN(CC)CC)OCC(CC/C=C\CC)CC/C=C\CC [Compound 88]
5.64 | 88.8% | 0.037 | 138.5 nm | CCCCCCCCC(CCCCCC)COP(=O)(NCCN(CCO)CCCC)OCC(CCCCCC)CCCCCCCC (centres unmarked) [Compound 14]
5.644 | 88.8% | 0.037 | 138.5 nm | CCCCCCCCC(CCCCCC)COP(=O)(NCCN(CCO)CCCC)OCC(CCCCCC)CCCCCCCC (centres unmarked) [Compound 54]
 | 102.8% | 0.12 | 63.18 nm | CCCCCCCCC(CCCCCC)COC(=O)CCCCCOP(=O)(NCCCN(C)C)OCCCCCC(=O)OCC(CCCCCC)CCCCCCCC (centres unmarked) [Compound 45]
5.216 | 71.7% | 0.153 | 53.57 nm | CCCCCCCC(CCCCCCC)COP(=O)(NCCN1CCCC1)OCC(CCCCCCC)CCCCCCC [Compound 85]
5.51 | 58.9% | 0.09 | 84.8 nm | CCCCCCCCC(CCCCCC)COP(=O)(NCCCN1CCCCCC1)OCC(CCCCCC)CCCCCCCC (centres unmarked) [Compound 29]
6.66 | 75.52% | 0.167 | 88.45 nm | CCCCCCCCC(CCCCCC)COP(=O)(NCCN(CCCC)CCCC)OCC(CCCCCC)CCCCCCCC (centres unmarked) [Compound 51]
5.484 | 89.9% | 0.175 | 52.13 nm | CCCCCCCC(CCCCCCC)COP(=O)(NCCN(CC)CC)OCC(CCCCCCC)CCCCCCC [Compound 84]
6.259 | 94.2% | 0.172 | 57.31 nm | CCCCCCCCC(CCCCCCCC)COP(=O)(NCCN(CC)CC)OCC(CCCCCCCC)CCCCCCCC [Compound 80]
7.408 | 87.1% | 0.355 | 68.3 nm | CCCCCCCCC(C)COP(=O)(NCCN(CC)CC)OCC(C)CCCCCCCC (centres unmarked) [Compound 69]
 | 82.85% | 0.163 | 69.3 nm | CCCCCCCCC(CCCCCC)COP(=O)(NCCN1CC2CCCC2C1)OCC(CCCCCC)CCCCCCCC (centres unmarked) [Compound 61]
5.21 | 91.8% | 0.159 | 62.39 nm | CCCCCCCCC(CCCCCC)COP(=O)(NCCCN1CCOCC1)OCC(CCCCCC)CCCCCCCC (centres unmarked) [Compound 31]
7.401 | 95.0% | 0.253 | 86.75 nm | CCCCCCCCC(C)COP(=O)(NCCN1CCCC1)OCC(C)CCCCCCCC (centres unmarked) [Compound 68]
6.63 | 98.0% | 0.131 | 81.53 nm | CCCCCCCCC(CCCCCC)COP(=O)(NCCN1CCCC1)OCC(CCCCCC)CCCCCCCC (centres unmarked) [Compound 24]

Apparant Pka [1] | Encapsulation Efficiency [2] | polydispersity [3] | size (nm) [3] | Compound
6.603 | 92.1% | 0.023 | 138.2 nm | CCCCCCCCC(CCCC)COP(=O)(NCCN(CC)CC)OCC(CCCC)CCCCCCCC (centres unmarked) [Compound 75]
7.75 | 79.9% | 0.113 | 305.4 nm | CCCCCCCCCCCCCOP(=O)(NC1CCN(C2CCOCC2)CC1)OCCCCCCCCCCCCC [Compound 16]
4.666 | 76.6% | 0.24 | 74.49 nm | CCCCCCCCC(CCCCCC)COP(=O)(OCCN1CCCC1)OCC(CCCCCC)CCCCCCCC (centres unmarked) [Compound 76]
6.20 | 95.3% | 0.091 | 63.97 nm | CCCCCCCCC(CCCCCCCC)OC(=O)CCCCCCCOP(=O)(NCCCN(C)C)OCCCCCCCC(=O)OC(CCCCCCCC)CCCCCCCC [Compound 36]
7.20 | 96.3% | 0.1 | 73.54 nm | CCCCCCCCC(CCCCCC)COP(=O)(NCCCN(C)C)OCC(CCCCCC)CCCCCCCC (centres unmarked) [Compound 7]
6.153 | 93.8% | 0.298 | 53.76 nm | CCCCCCCCC(CCC)COP(=O)(NCCN(CC)CC)OCC(CCC)CCCCCCCC (centres unmarked) [Compound 70]
5.253 | 92.5% | 0.264 | 139.3 nm | CCCCCCCCC(CCCCCC)COP(=O)(NCCN(CCO)CCCCCC)OCC(CCCCCC)CCCCCCCC (centres unmarked) [Compound 56]
6.13 | 94.0% | 0.137 | 164.9 nm | CCCCCCCCCCCCCOP(=O)(NCCCN1CCCC1)OCCCCCCCCCCCCC [Compound 12]
7.33 | 88.3% | 0.262 | 111.7 nm | CCCCCCCCCOC(=O)CCCCCOP(=O)(NCCCN(C)C)OCCCCCC(=O)OCCCCCCCCC [Compound 6]
5.309 | 85.2% | 0.138 | 63.36 nm | CCCCCCCCC(CCCCCC)COP(=O)(OCCN1CCCCC1)OCC(CCCCCC)CCCCCCCC (centres unmarked) [Compound 77]
5.325 | 91.0% | 0.196 | 78.22 nm | CCCCCCCCC(CCCCCC)COP(=O)(NCCN(CCO)C1CCC1)OCC(CCCCCC)CCCCCCCC (centres unmarked) [Compound 57]
9.07 | 98.5% | 0.181 | 116.8 nm | CCCCCCCCCOC(=O)CCCCCOP(=O)(NCCCCN(C)C)OCCCCCC(=O)OCCCCCCCCC [Compound 2]
4.55 | 48.8% | 0.166 | 104.3 nm | CCCCCCCCC(CCCCCCCC)OC(=O)CCCCCCCOP(=O)(NCCCN(C)C)NCCCN(C)C [Compound 37]
5.42 | 61.6% | 0.073 | 119.8 nm | CCCCCCCCCCCCCOP(=O)(NCCN1CCN(C(C)=O)CC1)OCCCCCCCCCCCCC [Compound 17]
8.96 | 101.1% | 0.077 | 80.54 nm | CCCCCCCCCOP(=O)(NCCCN(C)C)OCCCCCCCC(=O)OC(CCCCCCCC)CCCCCCCC (centres unmarked) [Compound 32]
 | 85.5% | 0.09 | 93.25 nm | CCCCCCCCC(CCCCCC)COP(=O)(NCCN(CCC)CCC)OCC(CCCCCC)CCCCCCCC (centres unmarked) [Compound 50]
 | 102.3% | 0.1 | 54.46 nm | CCCCCCCCC(CCCCCCCC)OC(=O)CCCCCCCOP(=O)(NCCN(C)C)OCCCCCCC (centres unmarked) [Compound 42]
 | 93.48% | 0.094 | 73.81 nm | CCCCCCCCC(CCCCCC)COP(=O)(NCCN(C(C)C)C(C)C)OCC(CCCCCC)CCCCCCCC (centres unmarked) [Compound 48]

Compound | Apparant Pka [1] | Encapsulation Efficiency [2] | polydispersity [3] | size (nm) [3]
CCCCCCCCCOP(=O)(NCCN(C)C)OCCCCCCCCC [Compound 3] | 8.59 | 61.6% | 0.154 | 53.41 nm
CCCCCCCCCCCCCOP(=O)(OCCCCCCCCCCCCC)N1CCC(N(C)C)CC1 [Compound 18] | 6.16 | 94.3% | 0.074 | 159.2 nm
